Experimental data taken from patent US8541460B2, “PDK-1/Akt signaling inhibitors” (The Ohio State University, priority 2003, dated 2013).

Experiments:
PC-3 = test: NCI DTP cell line screen (SRB), Prostate Cancer; assay type: cell-based
Method: (§1) Screening of compounds 70 and 71 against several cancer cell lines The human tumor cell lines of the cancer screening panel are grown in RPMI 1640 medium containing 5% fetal bovine serum and 2 mM L-glutamine. For a typical screening experiment, cells are inoculated into 96 well microtiter plates in 100 μL at plating densities ranging from 5,000 to 40,000 cells/well depending on the doubling time of individual cell lines. After cell inoculation, the microtiter plates are incubated at 37° C., 5% CO2, 95% air and 100% relative humidity for 24 h prior to addition of experimental drugs.
(§2) After 24 h, two plates of each cell line are fixed in situ with TCA, to represent a measurement of the cell population for each cell line at the time of drug addition (Tz). Experimental drugs are solubilized in dimethyl sulfoxide at 400-fold the desired final maximum test concentration and stored frozen prior to use. At the time of drug addition, an aliquot of frozen concentrate is thawed and diluted to twice the desired final maximum test concentration with complete medium containing 50 μg/ml gentamicin. Additional four, 10-fold or ½ log serial dilutions are made to provide a total of five drug concentrations plus control. Aliquots of 100 μl of these different drug dilutions are added to the appropriate microtiter wells already containing 100 μl of medium, resulting in the required final drug concentrations.
(§3) Following drug addition, the plates are incubated for an additional 48 h at 37° C., 5% CO2, 95% air, and 100% relative humidity. For adherent cells, the assay is terminated by the addition of cold TCA. Cells are fixed in situ by the gentle addition of 50 μl of cold 50% (w/v) TCA (final concentration, 10% TCA) and incubated for 60 minutes at 4° C. The supernatant is discarded, and the plates are washed five times with tap water and air dried. Sulforhodamine B (SRB) solution (100 μl) at 0.4% (w/v) in 1% acetic acid is added to each well, and plates are incubated for 10 minutes at room temperature. After staining, unbound dye is removed by washing five times with 1% acetic acid and the plates are air dried. Bound stain is subsequently solubilized with 10 mM trizma base, and the absorbance is read on an automated plate reader at a wavelength of 515 nm. For suspension cells, the methodology is the same except that the assay is terminated by fixing settled cells at the bottom of the wells by gently adding 50 μl of 80% TCA (final concentration, 16% TCA). Using the seven absorbance measurements [time zero, (Tz), control growth, (C), and test growth in the presence of drug at the five concentration levels (Ti)], the percentage growth is calculated at each of the drug concentrations levels. Percentage growth inhibition is calculated as: [(Ti−Tz)/(C−Tz)]×100 for concentrations for which Ti>/=Tz [(Ti−Tz)/Tz]×100 for concentrations for which Ti<Tz
(§4) Three dose response parameters are calculated for each experimental agent. […] The drug concentration resulting in total growth inhibition (TGI) is calculated from Ti=Tz. […] Values are calculated for each of these three parameters if the level of activity is reached; however, if the effect is not reached or is exceeded, the value for that parameter is expressed as greater or less than the maximum or minimum concentration tested.
(§5) The methods described were used to test compounds 70 and 71 on a panel of sixty cell lines under a screening service provided by the Developmental Therapeutics Program at the National Institutes of Health. Shown in FIG. 1C are 1, RPMI-8226 leukemia cells; 2; NCI-H322M non-small cell lung cancer cells; 3, HT29 colon cancer cells; 4, U251 CNS cancer cells; 5, SK-MEL-28 melanoma cancer cells; 6, SK-OV-3 ovarian cancer cells; 7, RXF 393 renal cancer cells; 8, PC-3 prostate cancer cells; 9, MDA-MB-231 breast cancer cells.

DU-145 = test: NCI DTP cell line screen (SRB), Prostate Cancer; assay type: cell-based
Method: as §1, §2, §3, §4, §5

ACHN = test: NCI DTP cell line screen (SRB), Renal Cancer; assay type: cell-based, human
Method: as §1, §2, §3, §4, §5

RXF 393 = test: NCI DTP cell line screen (SRB), Renal Cancer; assay type: cell-based, human
Method: as §1, §2, §3, §4, §5

UO-31 = test: NCI DTP cell line screen (SRB), Renal Cancer; assay type: cell-based, human
Method: as §1, §2, §3, §4, §5

CAKI-1 = test: NCI DTP cell line screen (SRB), Renal Cancer; assay type: cell-based, human
Method: as §1, §2, §3, §4, §5

[1] = system: sixty human tumor cell lines; test: NCI DTP screen, means over sixty human tumor cell lines; assay type: cell-based; details: two-day treatment
Method: as §1, §2
Following drug addition, the plates are incubated for an additional 48 h at 37° C., 5% CO2, 95% air, and 100% relative humidity. For adherent cells, the assay is terminated by the addition of cold TCA. Cells are fixed in situ by the gentle addition of 50 μl of cold 50% (w/v) TCA (final concentration, 10% TCA) and incubated for 60 minutes at 4° C. […] Bound stain is subsequently solubilized with 10 mM trizma base, and the absorbance is read on an automated plate reader at a wavelength of 515 nm. […] Using the seven absorbance measurements [time zero, (Tz), control growth, (C), and test growth in the presence of drug at the five concentration levels (Ti)], the percentage growth is calculated at each of the drug concentrations levels. Percentage growth inhibition is calculated as: [(Ti−Tz)/(C−Tz)]×100 for concentrations for which Ti>/=Tz [(Ti−Tz)/Tz]×100 for concentrations for which Ti<Tz
Three dose response parameters are calculated for each experimental agent. […] The drug concentration resulting in total growth inhibition (TGI) is calculated from Ti=Tz. […] Values are calculated for each of these three parameters if the level of activity is reached; however, if the effect is not reached or is exceeded, the value for that parameter is expressed as greater or less than the maximum or minimum concentration tested. […]

COX-2 = COX-2 (Homo sapiens, UniProt P35354); test: COX-2 inhibitory activity; assay type: biochemical; details: concentrations up to 50 μM
COX-2, sequence (P35354 18-604): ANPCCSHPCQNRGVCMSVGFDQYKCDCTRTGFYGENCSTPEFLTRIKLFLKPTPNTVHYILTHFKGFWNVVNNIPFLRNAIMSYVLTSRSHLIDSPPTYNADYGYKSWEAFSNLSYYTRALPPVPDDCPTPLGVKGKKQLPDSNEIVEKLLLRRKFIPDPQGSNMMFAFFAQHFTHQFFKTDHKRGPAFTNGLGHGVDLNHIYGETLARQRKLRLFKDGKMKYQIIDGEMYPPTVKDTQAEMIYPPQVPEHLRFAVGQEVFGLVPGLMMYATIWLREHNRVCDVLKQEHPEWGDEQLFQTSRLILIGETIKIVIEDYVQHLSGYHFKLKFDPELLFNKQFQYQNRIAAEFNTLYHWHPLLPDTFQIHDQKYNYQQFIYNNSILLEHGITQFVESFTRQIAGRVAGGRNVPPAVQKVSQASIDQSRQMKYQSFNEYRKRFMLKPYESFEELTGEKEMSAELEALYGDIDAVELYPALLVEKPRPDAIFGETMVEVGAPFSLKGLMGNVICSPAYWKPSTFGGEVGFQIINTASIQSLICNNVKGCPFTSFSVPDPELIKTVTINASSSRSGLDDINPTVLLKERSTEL

SK-OV-3 = test: NCI DTP cell line screen (SRB), Ovarian Cancer; assay type: cell-based, human
Method: as §1, §2, §3, §4, §5

N=C(N)Nc1ccc(-n2nc(C(F)(F)F)cc2-c2ccc3c(ccc4ccccc43)c2)cc1 [Compound 71, 4-[5-(2-Phenanthrenyl)-3-(trifluoromethyl)-1H-pyrazol-1-yl]-phenyl-guanidine]
GI50 (PC-3): 1380 nM | TGI (PC-3): 2.67E−06 | Mean Optical Densities (PC-3; Log10 Concentration −4.0): 0.179 | Percent Growth (PC-3; Log10 Concentration −4.0): −26% | Mean Optical Densities (PC-3; Log10 Concentration −5.0): −0.022 | Percent Growth (PC-3; Log10 Concentration −5.0): −100% | Mean Optical Densities (PC-3; Log10 Concentration −6.0): 0.857 | Percent Growth (PC-3; Log10 Concentration −6.0): 75% | Mean Optical Densities (PC-3; Log10 Concentration −7.0): 0.846 | Percent Growth (PC-3; Log10 Concentration −7.0): 73% | Mean Optical Densities (PC-3; Log10 Concentration −8.0): 0.862 | Percent Growth (PC-3; Log10 Concentration −8.0): 75% | GI50 (DU-145): 1550 nM | TGI (DU-145): 2.89E−06 | Mean Optical Densities (DU-145; Log10 Concentration −4.0): −0.019 | Percent Growth (DU-145; Log10 Concentration −4.0): −100% | Mean Optical Densities (DU-145; Log10 Concentration −5.0): −0.074 | Percent Growth (DU-145; Log10 Concentration −5.0): −100% | Mean Optical Densities (DU-145; Log10 Concentration −6.0): 0.760 | Percent Growth (DU-145; Log10 Concentration −6.0): 85% | Mean Optical Densities (DU-145; Log10 Concentration −7.0): 0.767 | Percent Growth (DU-145; Log10 Concentration −7.0): 87% | Mean Optical Densities (DU-145; Log10 Concentration −8.0): 0.694 | Percent Growth (DU-145; Log10 Concentration −8.0): 72% | CC50 (DU-145; read-out: LC50 (the source's name)): 5370 nM | GI50 (ACHN): 1670 nM | Mean Optical Densities (ACHN; Log10 Concentration −4.0): 0.291 | Percent Growth (ACHN; Log10 Concentration −4.0): −22% | Mean Optical Densities (ACHN; Log10 Concentration −5.0): 0.034 | Percent Growth (ACHN; Log10 Concentration −5.0): −91% | Mean Optical Densities (ACHN; Log10 Concentration −6.0): 0.964 | Percent Growth (ACHN; Log10 Concentration −6.0): 90% | Mean Optical Densities (ACHN; Log10 Concentration −7.0): 0.902 | Percent Growth (ACHN; Log10 Concentration −7.0): 81% | Mean Optical Densities (ACHN; Log10 Concentration −8.0): 0.898 | Percent Growth (ACHN; Log10 Concentration −8.0): 80% | TGI (ACHN; in M (unit assumed)): 3.15E−06 | TGI (RXF 393): 2.91E−06 | Mean Optical Densities (RXF 393; Log10 Concentration −4.0): 0.385 | Percent Growth (RXF 393; Log10 Concentration −4.0): −4% | Mean Optical Densities (RXF 393; Log10 Concentration −5.0): 0.156 | Percent Growth (RXF 393; Log10 Concentration −5.0): −61% | Mean Optical Densities (RXF 393; Log10 Concentration −6.0): 0.629 | Percent Growth (RXF 393; Log10 Concentration −6.0): 53% | Mean Optical Densities (RXF 393; Log10 Concentration −7.0): 0.629 | Percent Growth (RXF 393; Log10 Concentration −7.0): 53% | Mean Optical Densities (RXF 393; Log10 Concentration −8.0): 0.582 | Percent Growth (RXF 393; Log10 Concentration −8.0): 42% | GI50 (UO-31): 1570 nM | Mean Optical Densities (UO-31; Log10 Concentration −4.0): 0.288 | Percent Growth (UO-31; Log10 Concentration −4.0): −35% | Mean Optical Densities (UO-31; Log10 Concentration −5.0): −0.030 | Percent Growth (UO-31; Log10 Concentration −5.0): −100% | Mean Optical Densities (UO-31; Log10 Concentration −6.0): 1.332 | Percent Growth (UO-31; Log10 Concentration −6.0): 87% | Mean Optical Densities (UO-31; Log10 Concentration −7.0): 1.407 | Percent Growth (UO-31; Log10 Concentration −7.0): 94% | Mean Optical Densities (UO-31; Log10 Concentration −8.0): 1.375 | Percent Growth (UO-31; Log10 Concentration −8.0): 91% | TGI (UO-31; in M (unit assumed)): 2.92E−06 | GI50 (CAKI-1): 1830 nM | Mean Optical Densities (CAKI-1; Log10 Concentration −4.0): 0.315 | Percent Growth (CAKI-1; Log10 Concentration −4.0): −47% | Mean Optical Densities (CAKI-1; Log10 Concentration −5.0): −0.067 | Percent Growth (CAKI-1; Log10 Concentration −5.0): −100% | Mean Optical Densities (CAKI-1; Log10 Concentration −6.0): 1.804 | Percent Growth (CAKI-1; Log10 Concentration −6.0): 103% | Mean Optical Densities (CAKI-1; Log10 Concentration −7.0): 1.642 | Percent Growth (CAKI-1; Log10 Concentration −7.0): 89% | Mean Optical Densities (CAKI-1; Log10 Concentration −8.0): 1.735 | Percent Growth (CAKI-1; Log10 Concentration −8.0): 97% | TGI (CAKI-1; in M (unit assumed)): 3.22E−06 | mean TGI among the sixty cell lines [1]: 2900 nM | GI50 ([1]; read-out: mean GI50 among the sixty cell lines): 1200 nM | CC50 ([1]; read-out: mean LC50 among the sixty cell lines): 8500 nM | COX-2 inhibitory activity (COX-2): nor was any measurable COX-2 inhibitory activity detected | GI50 (SK-OV-3): 1430 nM | TGI (SK-OV-3): 2.94E−06 | Mean Optical Densities (SK-OV-3; Log10 Concentration −4.0): 0.278 | Percent Growth (SK-OV-3; Log10 Concentration −4.0): −30% | Mean Optical Densities (SK-OV-3; Log10 Concentration −5.0): 0.062 | Percent Growth (SK-OV-3; Log10 Concentration −5.0): −85% | Mean Optical Densities (SK-OV-3; Log10 Concentration −6.0): 1.093 | Percent Growth (SK-OV-3; Log10 Concentration −6.0): 75% | Mean Optical Densities (SK-OV-3; Log10 Concentration −7.0): 1.245 | Percent Growth (SK-OV-3; Log10 Concentration −7.0): 91% | Mean Optical Densities (SK-OV-3; Log10 Concentration −8.0): 1.261 | Percent Growth (SK-OV-3; Log10 Concentration −8.0): 93%
